Patent US20020028237A1, “Method for reducing toxicity of a cytotoxic agent” (priority 2000, published 2002)

Experiments:
[1] = tested on: Lewis lung tumors; experiment: Growth of SC Lewis lung tumors
Procedure: Doxil® was administered 4 mg/kg IV, weekly for 3 cycles. Amifostine, 100 or 200 mg/kg IV, was administered before and 1, 2, and 3 days after each Doxil® treatment cycle.

[2] = tested on: PPE lesions; experiment: Rat model of Doxil-induced palmar-plantar erythrodysesthesia (PPE); assay type: in vivo, Sprague-Dawley rats
Procedure: PPE score is the product of Severity Score and percentage of body area affected. Overall PPE score is the sum of scores for each body area.
24 male Sprague-Dawley rats weighing between 250 to 300 grams(g) were intravenously (IV) treated with Doxil® weekly for 5 cycles of administration. The dosage administered was 2.5 mg/kg IV. […] The rats were observed weekly for lesions and scoring (FIG. 1). Scores for severity and percentage affected body area were analyzed and reported on final observation.
Sprague-Dawley rats were treated with amifostine at a dosage of 100 or 200 milligram/kilogram (mg/kg) IV, weekly, approximately 15 minutes before each Doxil® injection or treated with amifostine, 100 mg/kg IV, twice weekly at 15 min before and 3 days after Doxil injection (FIG. 2).

[3] = tested on: C26 colon tumors; experiment: Survival of mice with IP C26 colon tumors; assay type: in vivo, BalbC mice; conditions: amifostine 200 mg/kg for five administrations
Procedure: Euthanasia was provided for animals with weight loss greater than 20% or with clinical signs of distress. Survival of female BalbC mice with IP C26 colon tumors treated once with Doxil® (8 mg/kg) (tumor inoculation: 10^6 cells IP). Animals were administered 200 mg/kg of amifostine subcutaneously (SC) prior to Doxil® administration and 1, 2, 4 and 6 days after Doxil® administration (FIG. 4).

[4] = tested on: canine non-Hodgkin's lymphoma; conditions: cited from earlier work
[5] = tested on: murine and human xenograft tumor models; conditions: in vivo; cited from earlier work

| SMILES | rate of tumor growth ([1]; Doxil 4 mg/kg IV weekly for 3 cycles, amifostine 100 or 200 mg/kg IV before and 1, 2, 3 days after each Doxil) | toxicity to the animals ([1]; amifostine 200 mg/kg days 0-3 of each Doxil treatment cycle) | overall PPE severity score ([2]; amifostine 100 mg/kg IV twice weekly, 15 min before and 3 days after Doxil 2.5 mg/kg, p<0.02) | overall PPE severity score ([2]; amifostine 100 mg/kg IV weekly, 15 min before each Doxil 2.5 mg/kg, not significant) | overall PPE severity score ([2]; amifostine 200 mg/kg IV weekly before each Doxil 2.5 mg/kg, p<0.01) | incidence of PPE ([2]; amifostine treatment with liposomal doxorubicin 2.5 mg/kg weekly) | toxicity (weight loss, lethargy) [3] | likelihood of severe PPE and discontinuation, placebo-treated versus pyridoxine-treated dogs (relative risk) ([4]; liposomal doxorubicin 1 mg/kg q 3 weeks x5, pyridoxine 50 mg tid oral 15 weeks, p=0.032) [fold] | remission rates between groups ([4]; pyridoxine versus placebo) | duration of remission ([4]; pyridoxine-treated dogs, placebo 48 days, p=0.084) [days] | survival ([4]; pyridoxine-treated dogs, placebo 130 days, p=0.182) [days] | effect of pyridoxine co-treatment on therapeutic effect of liposomal doxorubicin [5] |
| --- | --- | --- | --- | --- | --- | --- | --- | --- | --- | --- | --- | --- |
| NCCCNCCSP(=O)(O)O [amifostine] | did not affect rate of tumor growth | not significantly toxic | 4.33 | 7.94 | 3.18 | reduced | Significant toxicity | – | – | – | – | – |
| Cc1ncc(CO)c(CO)c1O [pyridoxine] | – | – | – | – | – | – | – | 4.2 | No difference | 159 | 201 | does not reduce the therapeutic effect |
